# According to patent US8778966B2, “Quinolinone derivatives as PARP and tank inhibitors” (Janssen Pharmaceutica, NV, priority 2007, dated 2014):
# Test system: HCT116 cells
# Experiment: Antiproliferative activity, Alamar Blue assay, HCT116 cells
# Format: cell-based, human
# Set-up: key to HCT116 antiproliferative activity pIC50: pIC50 = -log IC50 (IC50: conc. reducing growth to 50% of control)
# Conditions: HCT116 cells
# Procedure, shortened: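 Readout is resazurin fluorescence (ex 540, em 590 nm) after a 4 h dye incubation at 37 °C, following 4-day compound treatment of HCT116 cells plated 24 h earlier. Results expressed as % viable cells versus untreated; pIC50 derived from probit-fitted IC50.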
row,HCT116 antiproliferative activity pIC50,Compound
1,<5,"CCc1cc2ccc(C(C)(C#N)CC3COc4ccccc4O3)cc2[nH]c1=O (single isomer, unassigned) [Compound 47]"
2,5.8,CCc1cc2ccc(C(C)(C#N)Cc3cc(Cl)cc4c3OCOC4)cc2[nH]c1=O (stereo not shown) [Compound 92]

# Same assay, conditions: Homo sapiens, HCT-116, HCT116 cells, Alamar Blue; read-out: HCT116 antiproliferative activity pIC50 (converted)
row,Compound,IC50 [nM]
1,"CCc1cc2ccc([C@](C)(C#N)Cc3nc(OC)cc(OC)n3)cc2[nH]c1=O (single isomer, unassigned) [Compound 52]",5010
2,"CCc1cc2ccc([C@@](C)(C#N)Cc3nc(OC)cc(OC)n3)cc2[nH]c1=O (single isomer, unassigned) [Compound 53]",39.8
3,CCc1cc2ccc(C(C)(C#N)Cc3cccc(C#C[Si](C)(C)C)c3)cc2[nH]c1=O (stereo not shown) [Compound 1],200
4,Cc1cc2ccc(C(C)(C#N)Cc3cc4ccccc4[nH]3)cc2[nH]c1=O (stereo not shown) [Compound 234],5010
5,CCc1cc2ccc(C(C)(C#N)CCOc3cc(Cl)c(Cl)cc3Cl)cc2[nH]c1=O (stereo not shown) [Compound 277],501
6,CCc1cc2ccc(C(C)(C#N)CCOc3ccc4c(c3)OCO4)cc2[nH]c1=O (stereo not shown) [Compound 279],1260
7,CCc1cc2ccc(C(C)(C#N)Cc3cc(OC)cc(OC)c3)cc2[nH]c1=O (stereo not shown) [Compound 332],100

# Now from value to molecule:
row,IC50 [nM],Compound
1,200,CCc1cc2ccc(C(C)(C#N)Cc3ccc(F)c(C#N)c3)cc2[nH]c1=O (stereo not shown) [Compound 267]
2,1580,CCc1cc2ccc(C(C)(C#N)CCOc3ccccc3C#N)cc2[nH]c1=O (stereo not shown) [Compound 276]
3,1580,CCc1cc2ccc(C(C)(C#N)CCOc3ccccc3F)cc2[nH]c1=O (stereo not shown) [Compound 278]

# Same assay, conditions: Homo sapiens, HCT-116, HCT116 cells; read-out: HCT116 antiproliferative activity pIC50 (converted)
row,Compound,IC50 [nM]
1,CCc1cc2ccc(C(C#N)(Cc3ccccc3)CC3CC3)cc2[nH]c1=O (stereo not shown) [Compound 28],> 10000
2,CCc1cc2ccc(C(C)(C#N)Cc3nc(OC)cc(OC)n3)cc2[nH]c1=O (stereo not shown) [Compound 43],158
3,CCOP(=O)(OCC)c1cccc(CC(C)(C#N)c2ccc3cc(CC)c(=O)[nH]c3c2)c1 (stereo not shown) [Compound 50],1260
4,CCc1cc2ccc(C(C)(C#N)CCOc3ccc([N+](=O)[O-])cc3)cc2[nH]c1=O (stereo not shown) [Compound 54],501
5,CCc1cc2ccc(C(C)(C#N)Cc3cccc(CN4CCN(C)CC4)c3)cc2[nH]c1=O (stereo not shown) [Compound 57],> 10000
6,CCc1cc2ccc(C(C)(C#N)Cc3cccc(CN4CCOCC4)c3)cc2[nH]c1=O (stereo not shown) [Compound 58],501
7,CCc1cc2ccc(C(C)(C#N)Cc3cccc(CNCCN4CCOCC4)c3)cc2[nH]c1=O (stereo not shown) [Compound 61],> 10000
8,CCc1cc2ccc(C(C)(C#N)Cc3cccc(C(=O)NCCOC)c3)cc2[nH]c1=O (stereo not shown) [Compound 62],7940
9,CCc1cc2ccc(C(C)(C#N)Cc3cccc(N4CCNCC4)c3)cc2[nH]c1=O (stereo not shown) [Compound 64],> 10000
10,CCc1cc2ccc(C(C)(C#N)Cc3cccc(N4CCN(C)CC4)c3)cc2[nH]c1=O (stereo not shown) [Compound 66],5010
11,CCc1cc2ccc(C(C)(C#N)Cc3cccc(OCCCN4CCOCC4)c3)cc2[nH]c1=O (stereo not shown) [Compound 68],6310
12,CCc1cc2ccc(C(C)(C#N)Cc3cccc(OCCCN4CCN(C)CC4)c3)cc2[nH]c1=O (stereo not shown) [Compound 69],7940
13,Cc1cc2ccc(C(C)(C#N)Cc3noc(-c4cccc(C(F)(F)F)c4)n3)cc2[nH]c1=O (stereo not shown) [Compound 70],631
14,Cc1cc2ccc(C(C)(C#N)Cc3cc4ccccc4s3)cc2[nH]c1=O (stereo not shown) [Compound 71],5010
15,Cc1cc2ccc(C(C)(C#N)Cc3ccc(Cl)s3)cc2[nH]c1=O (stereo not shown) [Compound 72],794
16,Cc1cc2ccc(C(C)(C#N)Cc3cccc4cccnc34)cc2[nH]c1=O (stereo not shown) [Compound 74],501
17,Cc1cc2ccc(C(C)(C#N)Cc3nc4ccccc4s3)cc2[nH]c1=O (stereo not shown) [Compound 75],126
18,CCc1cc2ccc(C(C)(C#N)Cc3c(C)c(C)cc(C)c3C)cc2[nH]c1=O (stereo not shown) [Compound 88],> 10000
19,CCc1cc2ccc(C(C)(C#N)Cc3c(C)c(C)c(C)c(C)c3C)cc2[nH]c1=O (stereo not shown) [Compound 89],> 10000
20,CCc1cc2ccc(C(C)(C#N)Cc3cc(Cl)cc4c3OCOC4)cc2[nH]c1=O (stereo not shown) [Compound 90],1000
21,CCc1cc2ccc(C(C)(C#N)Cc3cc4c(cc3Cl)OCO4)cc2[nH]c1=O (stereo not shown) [Compound 91],501
22,CCc1cc2ccc(C(C)(C#N)Cc3nncn3C)cc2[nH]c1=O (stereo not shown) [Compound 93],> 10000

# Other lines, results leading:
row,IC50 [nM],Compound
1,> 10000,"CCc1cc2ccc([C@](C)(C#N)Cc3ccccc3)cc2[nH]c1=O (single isomer, unassigned) [Compound 45]"
2,158,"CCc1cc2ccc([C@@](C)(C#N)Cc3ccccc3)cc2[nH]c1=O (single isomer, unassigned) [Compound 46]"
3,2510,CCc1cc2ccc(C(C)(C#N)Cc3cccc(CN(C)C)c3)cc2[nH]c1=O (stereo not shown) [Compound 7]
4,631,CCc1cc2ccc(C(C)(C#N)Cc3cccc(COC)c3)cc2[nH]c1=O (stereo not shown) [Compound 8]
5,251,CCc1cc2ccc(C(C)(C#N)Cc3cccc(CO)c3)cc2[nH]c1=O (stereo not shown) [Compound 9]
6,7940,CC(C#N)(Cc1ccccc1)c1ccc2cc(CO)c(=O)[nH]c2c1 (stereo not shown) [Compound 40]
7,631,CCc1cc2ccc(C(C)(C#N)Cc3c(F)ccc(C)c3F)cc2[nH]c1=O (stereo not shown) [Compound 41]
8,158,CCc1cc2ccc(C(C)(C#N)Cc3nnsc3Cl)cc2[nH]c1=O (stereo not shown) [Compound 42]
9,200,CCc1cc2ccc(C(C)(C#N)Cc3cccc(Br)c3)cc2[nH]c1=O (stereo not shown) [Compound 49]
10,126,CCc1cc2ccc(C(C)(C#N)Cc3cccc(C#N)c3)cc2[nH]c1=O (stereo not shown) [Compound 51]
11,3160,CCc1cc2ccc(C(C)(C#N)Cc3cccc(CNC)c3)cc2[nH]c1=O (stereo not shown) [Compound 59]
12,6310,CCc1cc2ccc(C(C)(C#N)Cc3cccc(CNCCOC)c3)cc2[nH]c1=O (stereo not shown) [Compound 60]
13,1580,CCc1cc2ccc(C(C)(C#N)Cc3cccc(C(=O)N(C)C)c3)cc2[nH]c1=O (stereo not shown) [Compound 63]
14,1580,CCc1cc2ccc(C(C)(C#N)Cc3cccc(OCC4CC4)c3)cc2[nH]c1=O (stereo not shown) [Compound 67]
15,794,Cc1cc2ccc(C(C)(C#N)Cc3ccc(C(F)(F)F)o3)cc2[nH]c1=O (stereo not shown) [Compound 73]
16,251,Cc1cc2ccc(C(C)(C#N)Cc3ccccc3)cc2[nH]c1=O (stereo not shown) [Compound 76]
17,1000,CCc1cc2ccc(C(C)(C#N)Cc3ccc(OC)c(C#N)c3)cc2[nH]c1=O (stereo not shown) [Compound 77]
18,398,CCc1cc2ccc(C(C)(C#N)Cc3cc(C)ccc3C)cc2[nH]c1=O (stereo not shown) [Compound 78]

row,IC50 [nM],Compound
1,794,CCc1cc2ccc(C(C)(C#N)Cc3ccc(F)c(C)c3)cc2[nH]c1=O (stereo not shown) [Compound 79]
2,501,CCc1cc2ccc(C(C)(C#N)Cc3cc(Cl)ccc3OC)cc2[nH]c1=O (stereo not shown) [Compound 80]
3,316,CCc1cc2ccc(C(C)(C#N)Cc3cccc(Br)c3C)cc2[nH]c1=O (stereo not shown) [Compound 81]
4,316,CCc1cc2ccc(C(C)(C#N)Cc3ccc(Cl)c(C(F)(F)F)c3)cc2[nH]c1=O (stereo not shown) [Compound 82]
5,1000,CCc1cc2ccc(C(C)(C#N)Cc3ccc(C)c(F)c3F)cc2[nH]c1=O (stereo not shown) [Compound 83]
6,2000,CCc1cc2ccc(C(C)(C#N)Cc3c(C)cccc3C)cc2[nH]c1=O (stereo not shown) [Compound 84]
7,316,CCc1cc2ccc(C(C)(C#N)Cc3nc4ccccc4o3)cc2[nH]c1=O (stereo not shown) [Compound 85]
8,5010,CCc1cc2ccc(C(C)(C#N)Cc3csc(C)n3)cc2[nH]c1=O (stereo not shown) [Compound 86]
9,1000,CCc1cc2ccc(C(C)(C#N)Cc3ccc4nccnc4c3)cc2[nH]c1=O (stereo not shown) [Compound 87]
10,6310,CCc1cc2ccc(C(C)(C#N)Cc3cccc4nnn(C)c34)cc2[nH]c1=O (stereo not shown) [Compound 94]
11,251,CCc1cc2ccc(C(C)(C#N)Cc3nn(C)c4ccccc34)cc2[nH]c1=O (stereo not shown) [Compound 95]
12,5010,CCc1cc2ccc(C(C)(C#N)Cc3cn4ccccc4n3)cc2[nH]c1=O (stereo not shown) [Compound 96]
13,2510,CCc1cc2ccc(C(C)(C#N)Cc3cccnc3)cc2[nH]c1=O (stereo not shown) [Compound 97]
14,> 10000,CCc1cc2ccc(C(C)(C#N)Cc3ccncc3)cc2[nH]c1=O (stereo not shown) [Compound 98]
15,79.4,CCc1cc2ccc(C(C)(C#N)Cc3cc(Cl)ccc3Cl)cc2[nH]c1=O (stereo not shown) [Compound 99]
16,2510,CCc1cc2ccc(C(C)(C#N)Cc3ccccc3C#N)cc2[nH]c1=O (stereo not shown) [Compound 101]
17,2000,CCc1cc2ccc(C(C)(C#N)Cc3ccccc3OC(F)(F)F)cc2[nH]c1=O (stereo not shown) [Compound 102]
18,1000,CCc1cc2ccc(C(C)(C#N)Cc3ccccc3C(F)(F)F)cc2[nH]c1=O (stereo not shown) [Compound 103]
